Results as given in patent US20220211680A1, “COMPOUNDS AND COMPOSITIONS FOR TARGETING MACROPHAGES AND OTHER MANNOSE-BINDING C-TYPE LECTIN RECEPTOR HIGH EXPRESSING CELLS AND METHODS OF TREATING AND DIAGNOSIS USING SAME” (priority 2014, published 2022).

Columns and labels:
[1] = test system: CD206 expressing macrophages; assay: Apoptosis induction (Annexin-V) in MOs and KS tumor tissue; assay type: cell-based
Procedure: (§1) CD206 targeting assays were conducted using both in vitro monocyte-derived CD206+ macrophages (MOs) and ex vivo fresh Kaposi Sarcoma (KS) tumor tissue (provided by the AIDS and Cancer Specimen Resource [ACSR]). Tilmanocept-Cy3 with/without a chemo-therapeutic agent (CTA) attached (tilmanocept-Cy3-CTA or tilmanocept-Cy3) interactions with cellular and tumor targets were tracked by flow cytometry and immuno-histochemistry to evaluate Cy3-tilmanocept uptake and targeting capability for delivery of drug into KS tumor cells and TAMs.

[2] = test system: luciferase-expressing M tuberculosis H37Rv strain (M.tb-Lux); assay: Anti-bacterial activity against M.tb in human macrophages (luminescence); assay type: cell-based
[3] = test system: fresh Kaposi Sarcoma (KS) tumor tissue
Procedure: as §1

DC-SIGN (CD209) = DC-SIGN (CD209) (Homo sapiens, UniProt Q9NNX6); settings: AF488-labeled tilmanocept, anti-DC-SIGN Ab staining
DC-SIGN (CD209), sequence (Q9NNX6 whole entry): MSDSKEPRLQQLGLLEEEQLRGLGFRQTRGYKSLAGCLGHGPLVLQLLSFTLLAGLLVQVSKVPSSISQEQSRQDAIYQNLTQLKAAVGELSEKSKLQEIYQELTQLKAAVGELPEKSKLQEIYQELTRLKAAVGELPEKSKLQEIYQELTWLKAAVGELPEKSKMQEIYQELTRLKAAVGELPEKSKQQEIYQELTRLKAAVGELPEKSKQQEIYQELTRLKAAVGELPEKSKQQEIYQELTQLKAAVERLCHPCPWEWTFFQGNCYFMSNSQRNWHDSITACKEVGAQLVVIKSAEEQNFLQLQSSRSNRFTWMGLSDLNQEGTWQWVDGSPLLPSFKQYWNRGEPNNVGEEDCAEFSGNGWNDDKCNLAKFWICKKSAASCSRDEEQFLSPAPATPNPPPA
Procedure: The tissue sections were first deparaffinized with xylene, followed by rehydration with graded alcohols (100%, 95%). A heat-induced epitope retrieval procedure was carried out by heating the tissue slides in citrate buffer (pH 6.0) at 95° C. for 10 min (31). Each tissue section was rehydrated with PBS buffer, blocked (5% non-fat dry milk in PBS+0.01% sodium azide) for 3 h at room temperature, and then incubated with specific primary Abs using manufacturer-recommended dilutions in a humidified chamber at 4° C. overnight. After extensive washing with PBS, the sections were counter-stained with AF488-conjugated anti-mouse and AF549-conjugated anti-rabbit secondary Abs (double staining) for 1 h at room temperature. The sections were washed again extensively and stained with the nuclear DNA stain DAPI for 10 min at room temperature. After washing and drying at room temperature, the slides were examined by a Flow View 1000 Laser Scanning Confocal microscope (Olympus). The MFI of a randomly selected group of confocal images was quantified using a pixel intensity measurement (NIH Image J program).
FFPE lymph node tissue sections were subjected to the antigen retrieval procedure (see immunohistochemistry method above) followed by incubation with AF488-labeled tilmanocept and staining with anti-DC-SIGN Ab.

COc1cccc2c1C(=O)c1c(O)c3c(c(O)c1C2=O)C[C@@](O)(C(=O)CO)C[C@@H]3O[C@H]1C[C@H](N)[C@H](O)[C@H](C)O1 [Docorubicin, doxorubicin]
toxicity to CD206 expressing macrophages (Annexin levels, FIG. 17) [1]: no toxicity
apoptosis induction on MOs and in tumor tissue ([1]; Annexin-V, overnight): less effect

NNC(=O)c1ccncc1 [INH, isoniazid]
lowest concentration at which activity against M.tb is maintained [2]: 0.0312 µM

dextran 3-[(2-aminoethyl)thio]propyl 17-carboxy-10,13,16-tris(carboxymethyl)-8-oxo-4-thia-7,10,13,16-tetraazaheptadec-1-yl 3-[[2-[[1-imino-2-(D-mannopyranosylthio)ethyl]amino]ethyl]thio]propyl ether complexes [Tilmanocept]
uptake in KS biopsy tissue culture [3]: uptake co-localized with CD206+ macrophages
binding to cells in lymph node tissue sections (DC-SIGN (CD209)): bind in clusters to a population of DC-SIGN-positive cells
